From the supplement of paper PMC10307832

Tests used:
Assay in all cases: relative viability (nuclei count vs DMSO), 5 days (fraction); higher = more cells survive
Sulindac = compound: CC1=C(CC(=O)O)c2cc(F)ccc2/C1=C\c1ccc([S+](C)[O-])cc1 [Sulindac]
Procedure, shortened: (§1)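 Viability was defined as treated-well nuclei divided by vehicle-well nuclei, with the median taken over replicate plates. Cells from lung cancer lines sat overnight at 37 °C in 1536-well plates, received five √10-spaced library-drug doses by pinning on vehicle-anchored plates, and grew 5 days without medium change before one-step fixation, permeabilisation and Hoechst staining, 4× imaging and MetaXpress nuclear counts. Only plates with control CV under 25% and at least one doubling were kept.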

Staurosporine = compound: CN[C@@H]1C[C@H]2O[C@@](C)([C@@H]1OC)n1c3ccccc3c3c4c(c5c6ccccc6n2c5c31)C(=O)NC4 [Staurosporine]
Procedure, shortened: as §1

5-Fluorouracil = compound: O=c1[nH]cc(F)c(=O)[nH]1 [5-Fluorouracil]
Procedure, shortened: as §1

Sulindac + Alpelisib = compound: CC1=C(CC(=O)O)c2cc(F)ccc2/C1=C\c1ccc([S+](C)[O-])cc1 [Sulindac] + Cc1nc(NC(=O)N2CCC[C@H]2C(N)=O)sc1-c1ccnc(C(C)(C)C(F)(F)F)c1 [Alpelisib] (partner 2 µM)
Procedure, shortened: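 Relative viability equals treated-well nuclei counts divided by vehicle-well nuclei counts. Counts came from 4× images of lung cancer cell lines grown in 1536-well plates for 5 days after pin-tool dosing on the day after seeding. Dosing used one drug alone or a fixed anchor-drug dose plus five library-drug doses (not always all listed) in √10 steps, and values are medians of duplicate plates.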

Row | Cell Line | relative viability (Sulindac; 0.08 µM) | relative viability (Sulindac; 0.253 µM) | relative viability (Sulindac; 0.8 µM) | relative viability (Sulindac; 2.53 µM) | relative viability (Sulindac; 8 µM) | relative viability (Staurosporine; 0.005 µM) | relative viability (Staurosporine; 0.01581 µM) | relative viability (Staurosporine; 0.05 µM) | relative viability (Staurosporine; 0.1581 µM) | relative viability (Staurosporine; 0.5 µM) | relative viability (5-Fluorouracil; 0.02 µM) | relative viability (5-Fluorouracil; 0.2 µM) | relative viability (5-Fluorouracil; 0.6325 µM) | relative viability (5-Fluorouracil; 2 µM) | relative viability (Sulindac + Alpelisib; first compound 0.08 µM) | relative viability (Sulindac + Alpelisib; first compound 0.253 µM) | relative viability (Sulindac + Alpelisib; first compound 0.8 µM) | relative viability (Sulindac + Alpelisib; first compound 2.53 µM) | relative viability (Sulindac + Alpelisib; first compound 8 µM)
1 | NCI-H1395 | 1.11 | 0.968 | 0.938 | 0.804 | 1.14 | 0.609 | 0.364 | 0.488 | 0.331 | 0.253 | 0.899 | 1.03 | 0.937 | 0.826 | 0.948 | 1.05 | 0.975 | 0.973 | 1.08
2 | NCI-H661 | 1.13 | 1.05 | 0.989 | 1 | 0.965 | 1.02 | 0.722 | 0.555 | 0.364 | 0.238 | 0.998 | 1.04 | 0.954 | 0.992 | 0.639 | 0.551 | 0.535 | 0.621 | 0.725
3 | NCI-H727 | 0.963 | 0.923 | 0.741 | 0.9 | 1.01 | 0.736 | 0.554 | 0.381 | 0.345 | 0.22 | 0.925 | 1.19 | 0.846 | 0.774 | 0.687 | 0.537 | 0.591 | 0.579 | 0.771
4 | NCI-H1734 | 1.17 | 1 | 0.787 | 0.991 | 1.07 | 0.899 | 0.375 | 0.291 | 0.151 | 0.113 | 0.93 | 1.08 | 0.859 | 0.461 | 0.712 | 0.696 | 0.64 | 0.693 | 0.805
5 | EKVX | 1.05 | 1.01 | 0.832 | 0.941 | 1.08 | 0.758 | 0.417 | 0.351 | 0.256 | 0.146 | 0.835 | 0.312 | – | 0.176 | 0.819 | 0.824 | 0.721 | 0.997 | 1.04
6 | EBC-1 | 1.12 | 1.14 | 0.705 | 1.09 | 1.1 | 0.623 | 0.395 | 0.239 | 0.2 | 0.12 | 1.03 | 0.979 | 0.934 | 0.619 | 0.993 | 0.944 | 0.848 | 0.79 | 0.887
7 | NCI-H596 | 0.975 | 1.03 | 0.846 | 1.02 | 1.04 | – | 0.54 | 0.792 | 0.204 | 0.151 | 1.01 | 0.981 | 0.718 | 0.439 | 0.554 | 0.532 | 0.551 | 0.478 | 0.485
8 | LCLC-97TM1 | 1.05 | 1.04 | 0.925 | 0.813 | 1.17 | 1.02 | 0.282 | 0.27 | 0.265 | 0.212 | 0.988 | 1.07 | 0.729 | 0.533 | 0.272 | 0.278 | 0.238 | – | 0.236
9 | COR-L23 | 1.41 | 1.08 | 0.7 | 1.01 | 1.22 | 0.765 | 0.443 | 0.289 | 0.123 | 0.0808 | 1 | 0.995 | 0.476 | 0.278 | 0.871 | 0.867 | – | 0.714 | 1.13
10 | NCI-H1355 | 1.02 | 1.06 | 0.873 | 0.971 | 1.08 | 0.856 | 0.238 | 0.363 | 0.197 | 0.159 | 0.925 | 0.877 | 0.438 | 0.309 | 0.912 | 0.945 | 0.784 | 0.842 | 0.854
11 | NCI-H1703 | 1.11 | 1 | 0.915 | 0.917 | 1.26 | 0.512 | 0.291 | 0.186 | 0.161 | 0.112 | 1.17 | 0.999 | 0.848 | 0.562 | 0.37 | 0.346 | 0.301 | 0.461 | 0.341
12 | EPLC-272H | 0.97 | 0.797 | 0.762 | 0.857 | 1.18 | 0.781 | 0.192 | 0.247 | 0.106 | 0.0993 | 0.732 | 0.706 | 0.397 | 0.262 | 0.759 | – | 0.618 | 0.985 | 1.03
13 | NCI-H1651 | 1.04 | 1.04 | 0.771 | 1.01 | 1.02 | 1.02 | 0.751 | 0.548 | 0.357 | 0.285 | 1.04 | 0.896 | 0.504 | 0.458 | 1.2 | 1.1 | 0.874 | 0.911 | 1.3
14 | SW 1573 | 1.05 | 1.09 | 0.861 | 0.999 | 1.21 | 0.622 | 0.277 | 0.187 | 0.137 | 0.076 | 1.01 | 1.03 | 0.938 | 0.532 | – | 0.706 | – | 0.793 | 0.934
15 | HCC-44 | 0.986 | 1.01 | 1.02 | 0.935 | 1.04 | 1.01 | 0.384 | 0.404 | 0.228 | 0.14 | 1.05 | 0.941 | 0.55 | 0.349 | 0.928 | 0.987 | 0.761 | 0.891 | 0.821
16 | NCI-H460 | 1.29 | 1.06 | 0.906 | 0.976 | 1.06 | 0.963 | 0.762 | 0.824 | 0.0553 | 0.0329 | 0.99 | 0.72 | 0.165 | 0.0713 | 0.82 | 0.492 | – | 0.477 | 0.709
17 | SK-LU-1 | 1.21 | 1.12 | 0.805 | 0.975 | 1.28 | 0.704 | 0.274 | 0.191 | 0.207 | 0.165 | 0.996 | 1.1 | 0.968 | 0.83 | 1.11 | 1.02 | 0.964 | 0.936 | 1.23
18 | LOU-NH91 | 0.989 | 0.982 | 0.944 | 0.922 | 1.11 | 0.921 | 0.603 | 0.613 | 0.294 | 0.275 | 0.99 | 1.1 | 0.734 | 0.39 | 0.711 | 0.7 | 0.636 | 0.745 | 0.808
19 | RERF-LC-KJ | 1.09 | 1.09 | 0.814 | 1.06 | 1.02 | 0.95 | 0.682 | 0.501 | 0.237 | 0.211 | 1.05 | 0.912 | 0.975 | 0.828 | 0.837 | 0.889 | 0.65 | 0.877 | 0.746
20 | NCI-H2126 | 0.975 | 1.01 | 0.842 | 1.03 | 1.05 | 0.875 | 0.397 | 0.582 | 0.391 | 0.303 | 0.915 | 0.532 | 0.356 | 0.351 | 0.723 | 0.737 | 0.669 | 0.721 | 0.807
21 | LU99A | 1.02 | 0.982 | 0.922 | 0.845 | 1.09 | 0.912 | 0.569 | 0.422 | 0.211 | 0.131 | 0.943 | 0.999 | 0.845 | 0.624 | 0.468 | 0.564 | 0.455 | 0.498 | 0.596
22 | BEN | 1.13 | 0.963 | 0.853 | 0.967 | 1.16 | 1.12 | 0.905 | 0.516 | 0.396 | 0.237 | 0.912 | 0.865 | 0.68 | 0.675 | 1.09 | 1.22 | 0.831 | 1 | 1.15
23 | NCI-H1666 | 0.906 | 0.978 | 0.886 | 0.982 | 1.08 | 0.7 | 0.68 | 0.557 | 0.484 | 0.373 | 1.04 | 0.683 | 0.503 | 0.479 | – | 1.09 | 0.808 | 0.866 | 0.99
24 | NCI-H1993 | 0.923 | 0.867 | 0.82 | 0.83 | 0.953 | 1.02 | 0.537 | 0.57 | 0.458 | 0.329 | 1.01 | 0.665 | 0.672 | 0.749 | 0.664 | 0.674 | 0.695 | 0.753 | 0.707
25 | A549 | 1.13 | 1.04 | 0.754 | 1.05 | 1.17 | 0.716 | 0.377 | 0.256 | 0.0723 | 0.0395 | 1.08 | 0.854 | 0.338 | 0.136 | 0.866 | 1.04 | – | 0.758 | 0.87
26 | NCI-H520 | 1.16 | 1.08 | 0.891 | 0.957 | 1.06 | 1.14 | 0.706 | 0.698 | 0.272 | 0.163 | 0.923 | 1.06 | 0.73 | 0.516 | 0.965 | 0.839 | 0.894 | 0.873 | 1.17
27 | LCLC-103H | 1.08 | 1.09 | 0.902 | 0.955 | 1.06 | 0.973 | 0.336 | 0.393 | 0.233 | 0.234 | 1.05 | 0.976 | 0.889 | 0.577 | 1.06 | 1.07 | 0.892 | 0.869 | 1.09
28 | HCC-78 | 1.14 | 0.958 | 0.759 | 0.913 | 0.961 | 0.88 | 0.666 | 0.586 | 0.363 | 0.353 | 0.896 | 1.13 | 0.603 | 0.404 | 0.353 | 0.387 | 0.352 | 0.27 | 0.374
29 | NCI-H1975 | 1.09 | 0.969 | 0.795 | 0.998 | 1.07 | 0.475 | 0.365 | 0.258 | 0.159 | 0.136 | 0.968 | 1.07 | 0.566 | 0.343 | 0.73 | 0.757 | – | 0.674 | 0.694
